Test results from ChEMBL document CHEMBL5727378, “Benzenesulfonamide derivatives as inverse agonists of retinoid-related orphan receptor gamma (RORγ(T))” (2019).

Molecular target: T1, Nuclear receptor ROR-gamma (Homo sapiens, UniProt P51449)
T1 sequence (P51449 whole entry): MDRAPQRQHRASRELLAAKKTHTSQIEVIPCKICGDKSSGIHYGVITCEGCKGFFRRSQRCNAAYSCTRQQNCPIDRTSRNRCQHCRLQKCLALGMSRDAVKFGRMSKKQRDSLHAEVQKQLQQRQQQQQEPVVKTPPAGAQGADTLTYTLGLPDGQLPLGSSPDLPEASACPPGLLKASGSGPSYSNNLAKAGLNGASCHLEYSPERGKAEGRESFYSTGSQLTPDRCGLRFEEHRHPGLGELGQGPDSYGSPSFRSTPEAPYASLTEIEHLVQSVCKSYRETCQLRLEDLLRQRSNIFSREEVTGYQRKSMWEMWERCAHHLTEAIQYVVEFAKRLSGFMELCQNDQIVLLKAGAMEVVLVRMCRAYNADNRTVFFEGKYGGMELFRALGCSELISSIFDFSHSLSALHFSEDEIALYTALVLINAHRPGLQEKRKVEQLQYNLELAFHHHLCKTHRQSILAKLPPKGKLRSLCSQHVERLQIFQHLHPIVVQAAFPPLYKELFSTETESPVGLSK
Experiment: GAL4-RORgamma Transactivation: The RORγ transactivation model was developed from the line HG5LN, which is a HeLa line that stably expresses a luciferase reporter gene controlled by a pentamer of the GAL4 recognition domain of yeast and of a β-globin promoter. The HG5LN line was stably transfected by the DNA-binding domain (DBD) of GAL4 fused to the ROR gamma ligand-binding domain (LBD). Molecules that inhibit the ROR gamma constitutive activity reduce the luciferase expression, thus leading to a reduction in the emitted luminescence.The cells are seeded in 384-well plates (5000 cells in 45 μL/well of culture medium containing 10% fetal calf serum) and incubated for 4 hours at 37° C., 5% CO2. 5 μL of the test molecules (compounds described in the tables described above) are then added to each well and the plates are incubated for 18 hours at a temperature of 37° C. under 5% of CO2. 20 μL of luciferase substrate (Promega) are added to each well and the luminescence emitted is read by a microplate reader.The luminescence units (“RLU”) are normalized by positive controls (“POS” containing a saturated concentration of benzenesulfonamide, N-(2,2,2-trifluoroethyl)-N-[4-[2,2,2-trifluoro-1-hydroxy-1-(trifluoromethyl)ethyl]phenyl]) and negative controls (“NEG” containing DMSO): % inhibition=((RLU−NEG)*100)/(POS−NEG). The IC50 values are calculated from a 4-parameter logistic model using the XLFit software (IDBS).

Row | IC50 | Compound
1 | > 1000 nM | CCc1ccc(N(CC(C)C)S(=O)(=O)c2ccc3c(c2)N(CC2CCOCC2)CCS3(=N)=O)cc1 (stereo not drawn)
2 | > 1000 nM | CCc1ccc(N(CC(C)C)S(=O)(=O)c2ccc(NC3CCNC(=O)C3)c(S(C)(=N)=O)c2)cc1 (stereo not drawn)
3 | < 100 nM | CCc1ccc(N(CC(C)C)S(=O)(=O)c2ccc(OCC3CCSCC3)c(S(C)(=N)=O)c2)cc1 (stereo not drawn)
